Where “and” joins values, the source holds several entries; their conditions need not be identical. Equal entries are not always repeated.
How the values were obtained:
[1] = test system: SK-N-MC neuroepithelioma cells; assay: 3H-thymidine incorporation by SK-N-MC cells; type: cell-based, human; settings: 20 h incubation then 2 h label; Mean ± SD, 4 experiments
Method: (§1) After a 20 h incubation of the SK-N-MC cells with a selection of analogues, ^3H-thymidine, ^3H-leucine, or ^3H-uridine (1 μCi/ml) was added for 2 h at 37° C. The cells were detached from the 96 well plate using 1 mM EDTA in Ca(II)/Mg(II)-free PBS and collected and washed using a cell harvester (Tomtec Harvester 96, Linbrook, Queensland, Australia). Radioactivity was measured on a P-scintillation counter (LKB Wallace, Turku, Finland).

[2] = test system: SK-N-MC neuroepithelioma cells; assay: 3H-leucine incorporation by SK-N-MC cells; type: cell-based, human; settings: 20 h incubation then 2 h label; Mean ± SD, 4 experiments
Method: as §1

GADD45 and WAF1 mRNA = assay: Northern blot of WAF1 and GADD45 mRNA expression in SK-N-MC cells; type: cell-based, human; settings: DFO 100 μM, other chelators 25 μM, 20 h at 37° C. (FIG. 7)
Method: FIG. 7. […] Northern blotting was performed using standard procedures (see Example 6).
Northern blot analysis was performed by isolating total RNA using the Total RNA Isolation Reagent (Advanced Biotechnologies Ltd, Surrey, United Kingdom). The membranes were hybridised with probes specific for human WAF1, GADD45, and β-actin. The WAF1 probe consisted of a 1 kb fragment from pSXV (ATCC; Cat. No. 79928). The GADD45 probe consisted of a 760 bp fragment from human GADD45 cDNA cloned into pHu145B2 (kindly supplied by Dr. Albert Fornace, National Cancer Institute, NIH, Maryland). The β-actin probe consisted of a 1.4 kb fragment from human β-actin cDNA cloned into pBluescript SK− (ATCC; Cat. No. 37997).

[3] = test system: iron regulatory proteins (IRPs); assay: IRP-RNA-binding activity, gel-retardation assay, SK-N-MC cells; type: cell-based, human; settings: DFO 100 μM, FAC 100 μg/ml, other chelators 25 μM, 20 h (FIG. 8)
Method: The IRP-RNA-binding activity was then assessed by the gel-retardation assay. Aliquots of cell lysate containing 2 μg of protein were incubated with 0.1 ng (approximately 1×10^5 cpm) of ^32P-labelled riboprobe for 30 min at room temperature. Using this protocol the level of RNA added was saturating. Unprotected probe was degraded by incubation with 1 U of RNAse T1 for 10 min at room temperature. Heparin (5 mg/ml) was then added for another 10 min to exclude non-specific binding. The IRE-protein complexes were analyzed on 6% non-denaturing polyacrylamide gels. In parallel experiments, samples were treated with ferricyanide (FeCN, 5 mM) and 0.5% β-mercaptoethanol (β-ME), prior to addition of the IRE probe. This procedure results in the conversion of IRP1, whether spontaneously active or not, into an active IRE-binding form.^22

[4] = Maximum tolerated dose in CD2F1 hybrid mice; type: in vivo; settings: CD2F1 mice, iv twice a day
Method: BALB/c and DBA/2 mice were obtained from Animal Resources Centre (University of New South Wales (UNSW), Sydney, Australia) and crossed to produce CD2F1 animals (all procedures used were approved by the Animal Ethics Committee, UNSW). Groups of eight female CD2F1 mice (8-10 weeks old) were fed and watered ad-libitum, and injected via the tail vein with compounds being studied in 30% propylene glycol in 0.9% sterile saline, twice a day, 6 h apart, 5 days/week for 2 weeks. The maximum tolerated dose (MTD) was defined as the dose at which 30% of a cohort either died or lost weight in excess of 10%.^19

M109 cells = assay: Apoptosis assay by flow cytometry (Annexin V-FITC / PI), cultured M109 cells; type: cell-based, mouse
Method: Apoptotic cells were detected by a flow cytometer (FACSCalibur, Becton Dickinson, Calif., USA) using fluorescein isothiocyanate (FITC) labelled Annexin V binding to translocated plasma membrane phosphatidylserine (PS).^25 Propidium iodide (PI) was added to identify loss of cell membrane integrity, which is indicative of necrotic cells.
There was a dose-dependent increase in the percentage of apoptotic and dead cells after Dp44mT treatment (FIG. 13A). Exposure of cells to 1 μM Dp44mT caused a significant (p<0.05) increase of apoptotic and dead cells. This increase peaked at a Dp44mT concentration of 100 μM resulting in a population consisting of 40±7% apoptotic cells and 27±3% dead cells (FIG. 13A).

active caspase-3 = assay: Protein level of active caspase-3 in M109 cells (western blotting); type: cell-based, mouse; settings: 1 μM
Method: (§2) FIG. 14. Effect of Dp44mT (1 μM) on the (A,B) protein levels of active caspase-3, -8 and -9, and (C,D) the activity of caspase-3, -8 and -9 in cultured M109 cells in the absence (C) and presence (D) of cell-permeable caspase inhibitors. (A) Caspase-3, -8, and -9 levels after Dp44mT treatment at indicated times as detected by western blotting (upper panel). The anti-β-actin antibody was used to ensure equal protein loading (lower panel). (B) Densitometric analysis of the expression of caspase-3, -8, and -9 as a function of time normalized to β-actin (C) Caspase activity induced by Dp44mT (1 μM) at 0-48 h was expressed as a percentage of the 0 h time value. (D) Cell-permeable inhibitors of caspase-3, -8 or -9 at 1 μM prevented activation of these enzymes when incubated with Dp44mT (1 μM) for 48 h. Results are mean±SEM of three separate experiments.
(§3) Rabbit anti-active caspase-3 antibody, rabbit anti-active caspase-8 antibody and Annexin V fluorescein isothiocyanate (FITC) were from BD PharMingen (San Diego, Calif., USA). Anti-h-cytc MoAb was from R&D Systems Minneapolis, Minn., USA). Rabbit anti-active caspase-9 antibody, mouse anti-Bcl-2 and mouse anti-Bax antibodies were obtained from Santa Cruz (Santa Cruz, Calif., USA). Mouse anti-mouse β-actin antibody, horseradish peroxidase-conjugated antirabbit, and anti-mouse IgG were from Sigma Chemical Co. (St. Louis, Mo., USA).
(§4) To determine the role of caspase activation in Dp44mT-induced apoptosis in M109 cells, protein levels of active caspase-3, -8 and -9 (FIG. 14A,B) and their enzymatic activity (FIG. 14C,D) were examined.

active caspase-9 = assay: Protein level of active caspase-9 in M109 cells (western blotting); type: cell-based, mouse; settings: 1 μM
Method: as §2, §3, §4

caspase-9 = assay: Caspase-9 activity in M109 cells (BD Apolert Caspase Assay Plate); type: cell-based, mouse; settings: 1 μM
Method: Cultured M109 cells were treated with or without Dp44mT (1 μM) for 0-48 h at 37° C. Cells were lysed^27 and caspase activities were determined using the BD Apolert™ Caspase Assay Plate (BD Biosciences, San Diego, Calif., USA). Cell-permeable pan-caspase-3, -8, and -9 inhibitors (BD Biosciences) were included as inhibitory controls.

Bcl-2 = assay: Mitochondrial Bcl-2 protein level in M109 cells; type: cell-based, mouse; settings: 1 μM
Method: (§5) Considering the roles of Bcl-2 and Bax in the mitochondrial pathway of apoptosis and their role in h-cytc release, ^8,11,12 the effect of Dp44mT (1 μM) on the protein levels of these molecules was assessed (FIG. 15B).

Bax = Bax protein level in M109 cells; type: cell-based, mouse; settings: 1 μM, 48 h
Method: as §5

CC(=O)N(O)CCCCCNC(=O)CCC(=O)N(O)CCCCCNC(=O)CCC(=O)N(O)CCCCCN [DFO, desferrioxamine]
3H-Thymidine Incorporation [1]: 29 ± 13 % Control and 29 + 13 % Control | 3H-Leucine Incorporation [2]: 9 ± 1 % Control | GADD45 and WAF1 mRNA expression (GADD45 and WAF1 mRNA): up-regulation | IRP-RNA binding activity [3]: increase

CN(C)C(=S)NN=C(c1ccccn1)c1ccccn1 [Dp44mT, di-2-pyridylketone 4,4-dimethyl-3-thiosemicarbazone]
maximum tolerated dose (MTD) [4]: 0.4 mg/kg | apoptotic cells (M109 cells; 1 μM, 12 h): 12±2% | apoptotic cells (M109 cells; 100 μM, 24 h): 40±7% | dead cells (M109 cells; 100 μM, 24 h): 27±3% | apoptotic cell numbers (M109 cells; 250 μM, 24 h): 20±2% | dead cell population (M109 cells; 250 μM, 24 h): 42±6% | caspase-3 protein level (active caspase-3; 2 h): 168 % of the control | caspase-3 protein level (active caspase-3; 6 h): 400 % of the control | caspase-3 protein level (active caspase-3; 12 h): 380 % of the control | caspase-3 protein level (active caspase-3; 24 h): about 4 fold that of control cells | caspase-3 protein level (active caspase-3; 48 h): 5.5 fold that of control cells | caspase-9 protein level (active caspase-9; 2 h): 171 % of the control | caspase-9 protein level (active caspase-9; 6 h): 280 % of the control | caspase-9 protein level (active caspase-9; 12 h): 280 % of the control | caspase-9 protein level (active caspase-9; 24 h): about 4 fold that of control cells | caspase-9 protein level (active caspase-9; 48 h): greater than 10 fold that of control cells | caspase-9 activity (caspase-9; 12 h): 354 % of the control | caspase-9 activity (plateau) (caspase-9; after 24 h): 400-600 % of the control | Bcl-2 protein level (Bcl-2; 2 h): 69 % of the 0 h time point | Bcl-2 protein level (Bcl-2; 48 h): 37 % of the 0 h time point | Bax expression (Bax): 500 % of that found at the 0 h time point
